From patent US8501090B2, “Anti-microbial gas apparatus and method” (priority 2008, dated 2013)

System: bacteria on healthy skin (back of the hand)
Assay: Anti-microbial effectiveness of nitric oxide on volunteers' hands (swab, five zone dilution on agar, zone-based grading)
Type: in vivo
Description: An experiment 46 used to determine the anti-microbial effectiveness of nitric oxide is illustrated in FIG. 3. In the experiment, five volunteers were selected 48. From a first hand of each volunteer, a technician using sterile gloves collected 50 a sample. This was accomplished by rubbing the back of the volunteer's hand with a sterile cotton collection swab for ten seconds. The swab was then applied 52 to a nutrient agar petri dish using the five corner or zone dilution method.
The five corner or zone dilution method involves mechanically diluting bacteria on a streak (blood agar) plate by sequentially spreading the bacteria across the plate in each of five zones. As the concentration of bacteria increases so do the number of zones containing bacteria. Bacteria on agar plate become visible as distinct circular colonies. Each colony represents an individual cell which has divided repeatedly to form a patch. The number of bacteria can be estimated by counting the number of patches or how far the bacteria is diluted by streaking it on the agar plate through the five zones.
After the sample was collected 50, the first hand was cleaned 54 using nitric oxide. This was done by placing the hand of the volunteer into a one-gallon plastic freezer bag. The bag was then inflated with nitric oxide through tubing attached to a portable nitric oxide generator. The open end of the bag was taped closed against the volunteer's forearm. A nitric oxide monitor assisted in keeping the nitric oxide concentration within the bag at 1,000 parts-per-million (ppm).
The volunteer maintained the hand inside the bag for fifteen minutes. After the fifteen minutes, the hand was removed from the bag in a sterile manner (i.e., the hand was not permitted to contact any non-sterile objects). Using sterile gloves and a sterile cotton collection swab, the technician collected 56 a second sample by rubbing the swab on the back of the hand for ten seconds. The swab was then applied 58 to a nutrient dish as explained above.
A similar process was followed with the volunteer's other hand. […]

[N]=O [nitric oxide]
reductions in colony counts of bacteria (bacteria exposed to nitric oxide, microbes on healthy skin): substantial reductions in colony counts | anti-microbial effects (direct comparison: immersing in enclosed environment of nitric oxide diluted with ambient air vs scrubbing with antibacterial soaps): superior to soaps | bacterial colony count (hands exposed to 1,000 ppm nitric oxide for fifteen minutes, compared with hands washed with DIAL antibacterial soap for 2 minutes, five volunteers): lower bacterial colony count
